Data: patent US7897722B2, “Composition of bone formation with PHSRN-RGD containing oligopeptide” (Seoul National University Industry Foundation, priority 2007, dated 2011)

Assays:
[1] = tested on: MG63 cells; experiment: ALP (alkaline phosphatase) assay, osteoblastic cell differentiation; format: cell-based, human; details: 7 days, control poly-L-lysine-coated
Method: (§1) MG63 cells (Korean Cell Line Bank, KCLB), used in the present invention, which is a human osteosarcoma cell line, were cultured in Dulbecco's modified Eagle's medium (DMEM) containing 10% (v/v) fetal bovine serum and 0.1% (w/v) gentamycin at 37° C., in a humidified 5% CO2 incubator.
In order to determine osteoblastic cell differentiation, ALP (Alkaline phosphatase) activity that implies in vitro bone formation activity, was measured. 5×10^4 MG63 cells were cultured in 0.1 μM recombinant oligopeptide-coated or poly-L-lysine-coated six-well plates for 7 days. Then, they were washed with PBS and lysed in 1.5 M Tris/HCl (pH 10.2) containing 1 mM ZnCl2, 1 mM MgCl2 and 1% (w/v) Triton X-100 at 4° C. for 10 min. After clarifying the cell lysates by centrifugation, the ALP activity was assayed according to the manufacturer's protocol for the ALP assay kit (Sigma, USA).

[2] = tested on: MG63 cells; experiment: Cell adhesion assay on coated culture plates; format: cell-based, human; details: plates coated with 0.1 μM recombinant oligopeptide; control poly-L-lysine-coated plate; P<0.05
Method: as §1
24-well plates were coated with 0.1 μM recombinant oligopeptide or poly-L-lysine at a predetermined concentration overnight at 4° C. and blocked with PBS containing 1% (w/v) BSA for 30 min, then rinsed with PBS.
The MG63 cells were serum-starved for 24 hours, harvested in 0.02% (w/v) trypsin, 1 mM EDTA, and resuspended in DMEM. After being washed 3 times with DMEM containing 100 μg/Ml soybean trypsin inhibitor and 1% (w/v) BSA, 5×10^4 MG63 cells in DMEM were plated in each well to culture at 37° C. for 30 min or 1 hour. Suspensions of control cells were maintained in BSA-coated plates at a given time. After 30 min, adherent cells were washed twice with PBS, fixed with 3% (w/v) paraformaldehyde, and stained with 0.25% (w/v) Crystal Violet (Sigma, USA) in 2% (v/v) ethanol/water. After washing with distilled water, the plates were allowed to dry. The absorbancy was measured at 570 nm to represent the mean±SD (standard deviation). Non-specific adhesion was determined using 1% BSA as a negative control group. […]

## DPHSRN-SITGTNLTPGYTITVYAVTG-RGD (DPHSRNSITGTNLTPGYTITVYAVTGRGD) [F20]
[1]; 0.1 μM oligopeptide-coated plates
  ALP activity of MG63 cells compared with control plates: 2.5 fold
[1]; 0.1 μM oligopeptide-coated six-well plates, n=3, P<0.05
  ALP activity of MG63 cells compared with control plates: 2.5 times
[2]
  cell adhesion capacity (absorbance at 570 nm) compared with control plates: 2 fold
